From US20240292843A1, “BIOFILM REMOVAL” (PARTNERS FOR ENDOSCOPY LIMITED, priority 2021, published 2024)

System: biofilm containing Pseudomonas aeruginosa
Assay: Biofilm treatment of endoscope biopsy channel pieces, CFU by serial dilution and plate counting (FIG. 1)
Type: cell-based
Conditions: mature biofilm on biopsy channel tubes; treatment applied for 5 minutes; 1.5 wt. % hydrogen peroxide or 1 mg/ml zeolite Y, aqueous; versus phosphate-buffer saline control; triplicate
Description: The biopsy channel of the endoscope harbors a biofilm containing Pseudomonas aeruginosa. As a first step, to form the sample biopsy tubes harboring the biofilm, the biopsy channel was first cut into small pieces, which are then submerged into Müller-Hilton broth. A single colony of Pseudomonas aeruginosa was added to the broth. At a second step, the pieces were kept in the broth at 37° C. for 24 hours to allow the bacteria to grow. Also in the second step, the tube pieces were then washed 5 times with a copious amount of water to remove dangling bacteria, and to leave only fixed biofilm remaining on the surface of the tubes. The second step is then repeated three times to provide a mature biofilm. To provide the data of FIG. 1, different treatment mixtures were applied for 5 minutes to the tubes with mature biofilm. The tubes with mature biofilm were prepared using the method above. After the treatment mixture is applied, the tubes are washed. The tubes are then placed in a centrifuge tube floating in an ultrasonic bath to release bacteria in the biofilm into solution. The number of colony forming units (CFU) is calculated via serial dilution and plate counting method. Each experiment is performed in triplicate.

OO [hydrogen peroxide]
number of colony forming units of the Pseudomonas aeruginosa bacteria: causes a reduction
